Laboratory results from patent publication US20040043483A1, “Novel tolerogenic dendritic cells and therapeutic uses therefor” (priority 2002, published 2004).

System: C3H spleen T cells
Experiment: One-way mixed leukocyte reaction (MLR), allostimulatory capacity by [3H]TdR uptake
Assay type: cell-based, mouse
Conditions: zVAD-fmk 100 μM added at the beginning of 3-day MLR
Protocol: Mixed leukocyte reaction (MLR). To determine the allostimulatory capacity of DCs, one-way MLR were performed with γ-irradiated (20 Gy) DCs or spleen cells from B10 (allogeneic) or C3H (syngeneic) mice as stimulators and nylon wool-purified C3H spleen T cells (2×105) as responders. Cultures (200 μl) were established in triplicate in 96-well round-bottom microculture plates and maintained in complete medium in 5% CO2 in air at 37° C. for 3-4 days. [^3H]TdR (1 μCi/well) was added for the final 18 h of culture, and incorporation of [^3H]TdR into DNA was assessed by liquid scintillation counting in an automated counter. Results are expressed as mean cpm±1 SD. In apoptosis inhibition experiments, a common caspase inhibitor peptide, benzyloxycarbonyl-Val Ala-Asp-fluoromethyl ketone (zVAD-fmk; Alexis, San Diego, Calif.), was added (100 μM) at the beginning of the MLR culture. DMSO served as a control.
Allostimulatory capacity of liver-derived DEC205^+B220^+CD19^−cells. The allostimulatory capacity of DEC205^+, B220^+, CD19^−cells derived from B 10 liver NPCs was determined in a one-way MLR, performed as described above. […] Despite the high expression of MHC and costimulatory molecules, liver-derived DEC205^+B220^+CD19^−cells display low allostimulatory capacity.

benzyloxycarbonyl-Val Ala-Asp-fluoromethyl ketone [zVAD-fmk]
T cell proliferation induced by liver-derived DEC205+B220+CD19− cells after caspase inhibition: restored T cell proliferation
